Measurements from article PMC11416114 (Infection and Drug Resistance, 2024).
Values joined by “and” are separate entries in the source; they are usually repeats but may differ in a detail not shown here. Equal values may be shown once. Read-outs that look alike come from different tables or passages of the source.

Columns and labels:
SARS-CoV-2 = conditions: free exposure, cited from earlier work
[1] = cited from earlier work
[2] = critically ill adult patients; for Residual variability (σ) stdev, Final Model Estimate, Mean: log-additive error
[3] = Chinese patients aged 60 and above; typical patient; cited from earlier work
[4] = eight CRRT supported critically ill patients; cited from earlier work
clinical = conditions: human, in vivo, 300 mg
[5] = cited from earlier work; remark: listed apart in the source
[6] = mild to moderate hepatic impairment; cited from earlier work
[7] = cited from earlier work; remark: listed apart in the source
[8] = limit for steady-state Cpeak; cited from earlier work
[9] = healthy young adults, NIR/RIT 2250mg/100mg once

Question: What does the source list for `CC(C)(C)[C@H](NC(=O)C(F)(F)F)C(=O)N1C[C@H]2[C@@H]([C@H]1C(=O)N[C@H](C#N)C[C@@H]1CCNC1=O)C2(C)C` [NIR, Nirmatrelvir]?
Answer: in vitro EC90 (free) (SARS-CoV-2): 0.0905 µg/mL; EC90 (SARS-CoV-2; read-out: in vitro EC90 (free)): 181 nM; CL/F lower than normal renal function group ([1]; moderate renal impairment group): 47%; CL/F lower than normal renal function group ([1]; severe renal impairment group): 80%; absorption rate constant (Ka), mean (SD) [2]: 0.42 (0.10) h^−1 and 0.42 h^−1; apparent clearance (CL/F), mean (SD) [2]: 3.6 (0.26) L/h and 3.6 L/h; Residual variability (σ) stdev, Bootstrap Estimate, Median ([2]; bootstrap): 0.26; dCLdAUCRIT, Bootstrap Estimate, Median ([2]; bootstrap): −0.44; dCLdCrCL, Bootstrap Estimate, Median ([2]; bootstrap): 0.58; ω^2V (inter-individual variability), Bootstrap Estimate, Median ([2]; bootstrap): 0.60; tvCL, Bootstrap of Final Model Estimate, Median ([2]; bootstrap 1000 samples): 3.2 L/h; tvKa, Bootstrap of Final Model Estimate, Median ([2]; bootstrap 1000 samples): 0.61 h⁻¹; Residual variability (σ) stdev, Final Model Estimate, Mean ([2]; final model): 0.26; tvCL, Final Model Estimate, Mean ([2]; one-compartment final model): 3.6 L/h; tvKa, Final Model Estimate, Mean ([2]; one-compartment final model): 0.42 h⁻¹; CL/F [3]: 4.16 L/h; Ka [3]: 0.776 h⁻¹; V/F [3]: 39.1 L; valley concentrations [4]: 3325.34 to 15625.46 ng/mL; AUC (clinical): 107 µg·h/mL; protein binding [5]: approximately 70%; median plasma concentration and AUC in hepatic impairment [6]: comparable to those with normal hepatic function; CL/F ([7]; healthy adults aged 18–60): 8.2 L/h; Ka ([7]; healthy adults aged 18–60): 1.11 h⁻¹; V/F ([7]; healthy adults aged 18–60): 111 L; AUC [7, 9]: 188.2 µg·h/mL; CL/F [7, 9]: 3.97 L/h; V/F [7, 9]: 40.06 L; human no observed adverse effect levels (NOAELs) [8]: 79,700 ng/mL

Question: With `CC(C)c1nc(CN(C)C(=O)N[C@H](C(=O)N[C@@H](Cc2ccccc2)C[C@H](O)[C@H](Cc2ccccc2)NC(=O)OCc2cncs2)C(C)C)cs1` [RIT, Ritonavir] as the compound, how does the “Residual variability (σ) stdev, Bootstrap Estimate, Median” value ([2]; bootstrap) read?
Answer: 0.34

Question: And the “ω^2CL (inter-individual variability), Bootstrap Estimate, Median” value ([2]; bootstrap)?
Answer: 0.53

Question: What about the “ω^2V (inter-individual variability), Bootstrap Estimate, Median” value ([2]; bootstrap) of the same compound?
Answer: 1.64

Question: What about the “tvCL, Bootstrap of Final Model Estimate, Median” value ([2]; bootstrap 1000 samples) of the same compound?
Answer: 10.3 L/h

Question: What about the “tvKa, Bootstrap of Final Model Estimate, Median” value ([2]; bootstrap 1000 samples) of the same compound?
Answer: 1.10 h⁻¹

Question: And the “tvV, Bootstrap of Final Model Estimate, Median” value ([2]; bootstrap 1000 samples)?
Answer: 82.4 L

Question: And the “ω^2CL (inter-individual variability), Final Model Estimate, Mean” value ([2]; final model)?
Answer: 0.57

Question: What about the “ω^2V (inter-individual variability), Final Model Estimate, Mean” value ([2]; final model) of the same compound?
Answer: 1.27

Question: And the “Residual variability (σ) stdev, Final Model Estimate, Mean” value ([2]; final model)?
Answer: 0.34

Question: What about the “tvCL, Final Model Estimate, Mean” value ([2]; one-compartment final model) of the same compound?
Answer: 10.3 L/h

Question: And the “tvKa, Final Model Estimate, Mean” value ([2]; one-compartment final model)?
Answer: 0.64 h⁻¹

Question: And the “tvV, Final Model Estimate, Mean” value ([2]; one-compartment final model)?
Answer: 84.9 L
